A word on the Papp A→B: it is how fast a substance crosses the layer from the apical side. A lower Papp A→B goes with slow passage. The term efflux ratio denotes a quotient of directional permeabilities that is used to spot active efflux. By fraction unbound is commonly meant the share of the substance not bound to proteins or other matrix. Lower therefore signals extensive binding.

From PMC9611727, “Optimization of a Novel Mandelamide-Derived Pyrrolopyrimidine Series of PERK Inhibitors” (Pharmaceutics, 2022) come the findings set out here.

For one data set, the system named is p-eIF2α. Description: Cellular PERK inhibition: p-eIF2a TR-FRET in tunicamycin-treated HEK293-EGFP-eIF2a cells. In kind it is cell-based. The protocol: Methods used to evaluate in vitro cellular PERK inhibition are described and published elsewhere. In brief, stableHEK293 cells were created using lentiviral particles harboring a GFP-eIF2a expression vector. Transfectants were selected by puromycin and enriched using fluorescent cell sorting based on GFP expression. HEK293-EGFP-eIF2a cells were plated at 5000 cells/well in 384-well assay plates and incubated overnight. The following day, pyrrolopyrimidine analogs were added to wells using an Echo acoustic dispenser and incubated for 30 min. ER stress was induced by the addition of tunicamycin to the wells at […] for 2 h. Cells were lysed and peIF2a was evaluated using a TR-FRET system, as described above.
The PERK activity of analog I was evaluated using cell-free biochemical assays. In these assays, PERK phosphorylation of eIF2a was assessed using a FRET-based labelled protein assay. Compounds were then evaluated for cellular activity by quantifying inhibition of eIF2a phosphorylation in HEK293 cells treated with the ER inducer tunicamycin [7].

A short description of data set [1]: Caco-2 permeability / efflux. As to conditions: human, Caco-2, pH 7.4; for efflux ratio at 120 min, 5 µM: Papp (B-to-A) / Papp (A-to-B). In kind it is in vitro ADME. The protocol: P-gp Substrate Assessment using Caco-2 Monolayers
Caco-2 cells (clone C2BBe1) were obtained from American Type Culture Collection (Manassas, VA). Hanks’ balanced salt solution, valspodar and lucifer yellow were obtained from Sigma-Aldrich (St. Louis, MO). All solvents were obtained from commercial sources and used without further purification. Cell monolayers were grown to confluence on collagen-coated, microporous membranes in 12-well assay plates. Details of the plates and their certification are shown below. The permeability assay buffer was Hanks’ balanced salt solution (HBSS) containing 10 mM HEPES and 15 mM glucose at a pH of 7.4. The buffer in the receiver chamber also contained 1% bovine serum albumin. The dosing solution concentration was 5 μM of test article in the assay buffer +/- 1 μM valspodar. Cells were first pre-incubated for 30 minutes with HBSS containing +/- 1 μM valspodar. Cell monolayers were dosed on the apical side (A-to-B) or basolateral side (B-to-A) and incubated at 37°C with 5% CO2 in a humidified incubator. Samples were taken from the donor and receiver chambers at 120 minutes. Each determination was performed in duplicate. The flux of lucifer yellow was also measured post-experimentally for each monolayer to ensure no damage was inflicted to the cell monolayers during the flux period. All samples were assayed by LC-MS/MS using electrospray ionization.
LC-MS/MS Analysis using the PE Sciex API 4000 mass spectrometer […]
Column: Waters ACQUITY UPLC BEH Phenyl 30 × 2.1 mm, 1.7 µm
Mobile Phase Buffer: 25 mM ammonium formate buffer, pH 3.5
Aqueous Reservoir (A): 90% water, 10% buffer
Organic Reservoir (B): 90% acetonitrile, 10% buffer
Total Run Time: 1.00 minute
Autosampler: 10 µL injection volume
Wash1: water/methanol/2-propanol:1/1/1; with 0.2% formic acid
Wash2: 0.1% formic acid in water
Instrument: PE SCIEX API 4000
Interface: Turbo Ionspray
Mode: Multiple Reaction Monitoring (Negative ion mode)
Method: 1.0 minute duration
Mass Spectrometer Settings
Data Analysis and Calculations
The apparent permeability (Papp) and percent recovery were calculated as follows:
Papp = (dCr/dt) × Vr/(A × CA)
Percent recovery = 100 × ((V × Cfinal) + (V × Cfinal)) / (V × C ) […]
dCr/dt is the slope of the cumulative receiver concentration versus time in µM s-1;
Vr is the volume of the receiver compartment in cm3;
Vd is the volume of the donor compartment in cm3;
A is the area of the insert (1.13 cm2 for 12-well);
CA is the average of the nominal dosing concentration and the measured 120 minute donor concentration in μM;
CN is the nominal concentration of the dosing solution in μM;
Cfinal is the cumulative receiver concentration in μM at the end of the incubation period; […]
Cd is the concentration of the donor in μM at the end of the incubation period.
Efflux ratio (ER) is defined as Papp (B-to-A) / Papp (A-to-B). […]
For orientation: Passage across Caco-2 layers is used to estimate intestinal permeability.

Data set [2] in a line: Plasma protein binding (RED dialysis), human. It is filed as in vitro ADME. As to conditions: both sexes, pooled human plasma, pH 7.4. The source says: Verapamil hydrochloride and tamoxifen were obtained from Sigma-Aldrich. […]
Pooled mixed gender human donor plasma, Sprague Dawley male rat plasma, CD-1 (ICR) male mouse plasma and male beagle dog plasma were obtained from Bioreclamation Inc. (Westbury, NY). Reusable Teflon base plate, RED Device inserts, and BupH Phosphate Buffered Saline packs (0.1 M sodium phosphate and 0.15 M sodium chloride when dissolved in 0.5 L water) were obtained from Thermo Scientific (Waltham, MA). Propranolol was obtained from Sigma-Aldrich (St. Louis, MO). All solvents were obtained from commercial sources and used without further purification.
Frozen plasma was thawed and the pH of plasma and BupH phosphate buffered saline was adjusted to 7.4 prior to dialysis. Into each well of a reusable Teflon 48-well base plate a RED insert was placed open end up. Ten microliters (10 µL) of the test compound (0.1 mM in acetonitrile/water, 1:1 v/v) was added to 990 µL of plasma to achieve 1 µM final concentration. The spiked plasma (200 µL) was added to the sample chamber, which is indicated by the red retainer ring (donor side). To the other side (receiver side), 350 µL of BupH phosphate buffered saline (pH 7.4) was added. A buffer-to-buffer assay was also performed to measure equilibrium across the membrane in the absence of plasma protein.
Propranolol was used as a positive control. All samples were prepared in triplicate. The RED device base plate was then sealed and placed in a shaking incubator set to maintain 37°C and 200 rpm for four hours.
After incubation, 100 µL of each sample was combined with an equal volume of either plasma or buffer, to create a similar matrix for all samples. Blank buffer was added to plasma samples, and vice versa. Samples from the incubation, along with the original compound-spiked plasma samples, were prepared for analysis in the same manner. Protein precipitation by addition of two parts of ice-cold acetonitrile to one part of reaction volume was carried out. To ensure complete protein precipitation samples were sealed and placed overnight at 4°C. The next morning samples were centrifuged at 3,600 rpm for 15 minutes. The supernatants (70 µL) were supplemented with an equal volume of internal standard solution (0.15 µM verapamil in water) and subjected to LC-MS/MS analysis.

Where [3] appears, read: Homo sapiens, HEK293 cells, tunicamycin-induced ER stress, read-out: p-eIF2α IC50.

Like-named read-outs stand apart in the source and are kept apart here.

On to `Cc1cc(NC(=O)[C@H](O)c2cccc(F)c2)ccc1-c1cn(C)c2ncnc(N)c12` [Compound 11, (R)-N-(4-(4-amino-7-methyl-7H-pyrrolo[2,3-d]pyrimidin-5-yl)-3-methylphenyl)-2-(3-fluorophenyl)-2-hydroxy acetamide], for which the IC50 in the data set on p-eIF2α (setting [3]) was 8.4 nM.

Regarding `Cc1nc(N)c2c(-c3ccc(NC(=O)[C@H](O)c4cccc(F)c4)cc3C)cn(C)c2n1` [Compound 24], in data set [1], the Papp A→B at 120 min, 5 µM amounted to 9 ×10⁻⁶ cm/s and the efflux ratio at 120 min, 5 µM came to 5.2. The molecule further had a fraction unbound at 4 h, 1 µM in data set [2] of 0.008. Besides, the IC50 in the data set with p-eIF2α (setting [3]) is 51 nM.

Consider `Cc1nc(N)c2c(-c3ccc(NC(=O)[C@H](O)c4cccc(C(F)(F)F)c4)cc3C)cn(C)c2n1` [Compound 26], for which, in data set [1], the Papp A→B at 120 min, 5 µM amounted to 21 ×10⁻⁶ cm/s and the efflux ratio at 120 min, 5 µM turned out to be 2.2. The fraction unbound at 4 h, 1 µM in data set [2] was 0.002. In addition, the IC50 with p-eIF2α (setting [3]) is 15 nM.

As to `Cc1nc(N)c2c(-c3ccc(NC(=O)[C@H](O)c4cccc(Cl)c4)cc3C)cn(C)c2n1` [Compound 28], in data set [1], the Papp A→B at 120 min, 5 µM stood at 23 ×10⁻⁶ cm/s and the efflux ratio at 120 min, 5 µM was determined as 1.9. For the same molecule, the fraction unbound at 4 h, 1 µM in data set [2] is 0.002. For the same molecule, in the data set with p-eIF2α (setting [3]), the IC50 stood at 16 nM.

On to `Cc1nc(N)c2c(-c3ccc(NC(=O)[C@H](O)c4cc(F)cc(F)c4)cc3C)cn(C)c2n1` [Compound 38], for which, in data set [1], the Papp A→B at 120 min, 5 µM was found to be 19 ×10⁻⁶ cm/s and the efflux ratio at 120 min, 5 µM was determined as 1.9. Further, the fraction unbound at 4 h, 1 µM in data set [2] came out at 0.01. Also, the IC50 with p-eIF2α (setting [3]) was 14 nM.

Regarding `Cc1nc(N)c2c(-c3ccc(NC(=O)[C@H](O)c4cc(F)cc(C(F)(F)F)c4)cc3C)cn(C)c2n1` [Compound 39], in data set [1], the Papp A→B at 120 min, 5 µM is 16 ×10⁻⁶ cm/s and the efflux ratio at 120 min, 5 µM is 2. In data set [2], this molecule showed a fraction unbound at 4 h, 1 µM of 0.001. For the same molecule, in the data set with p-eIF2α (setting [3]), the IC50 was found to be 11 nM.

On to `Cc1cc(F)cc([C@@H](O)C(=O)Nc2ccc(-c3cn(C)c4nc(C)nc(N)c34)c(C)c2)c1` [Compound 41], for which, in data set [1], the Papp A→B at 120 min, 5 µM worked out at 20 ×10⁻⁶ cm/s and the efflux ratio at 120 min, 5 µM turned out to be 2.5. The fraction unbound at 4 h, 1 µM in data set [2] was 0.004. For the same molecule, the IC50 with p-eIF2α (setting [3]) worked out at 10 nM.

As for `Cc1nc(N)c2c(-c3ccc(NC(=O)[C@H](O)c4cccc(Cl)c4)cc3F)cn(C)c2n1` [Compound 48], in data set [1], the Papp A→B at 120 min, 5 µM amounted to 24 ×10⁻⁶ cm/s and the efflux ratio at 120 min, 5 µM worked out at 1.6. This molecule registered a fraction unbound at 4 h, 1 µM in data set [2] of 0.001. Besides, in the data set on p-eIF2α (setting [3]), the IC50 came to 10 nM. Also, in the data set on p-eIF2α (bound stated, read-out: cellular potency), the IC50 is less than 15 nM.

Consider `Cc1nc(N)c2c(-c3ccc(NC(=O)[C@H](O)c4cccc(F)c4)c(F)c3C)cn(C)c2n1` [Compound 65], for which, in data set [1], the Papp A→B at 120 min, 5 µM amounted to 26 ×10⁻⁶ cm/s and the efflux ratio at 120 min, 5 µM stood at 1.6. For the same molecule, the fraction unbound at 4 h, 1 µM in data set [2] was 0.004. The IC50 in the data set with p-eIF2α (setting [3]) came to 30 nM.

Take `Cc1nc(N)c2c(-c3cc(F)c(NC(=O)[C@H](O)c4cccc(F)c4)cc3C)cn(C)c2n1` [Compound 66]: in data set [1], the Papp A→B at 120 min, 5 µM came to 24 ×10⁻⁶ cm/s and the efflux ratio at 120 min, 5 µM is 1.5. In data set [2], this molecule had a fraction unbound at 4 h, 1 µM of 0.007. The IC50 in the data set on p-eIF2α (setting [3]) worked out at 42 nM.

In the case of `Cc1nc(N)c2c(-c3ccc(NC(=O)[C@H](O)c4cccc(F)c4)c(F)c3F)cn(C)c2n1` [Compound 70, (R)-N-(4-(4-amino-2,7-dimethyl-7H-pyrrolo[2,3-d]pyrimidin-5-yl)-2,3-difluorophenyl)-2-(3-fluorophenyl)-2-hydroxyacetamide], in data set [1], the Papp A→B at 120 min, 5 µM was 29 ×10⁻⁶ cm/s and the efflux ratio at 120 min, 5 µM turned out to be 1.7. Further, the fraction unbound at 4 h, 1 µM in data set [2] was 0.006. Further, the IC50 with p-eIF2α (setting [3]) was determined as 24 nM.
